# Values quoted from earlier work, collected in patent publication US7109337B2, “Pyrimidine derivatives for the treatment of abnormal cell growth” (Pfizer Inc, priority 2002, dated 2006).
# Assays:
# [1] = test system: transplanted human mammary carcinoma that expresses epidermal growth factor receptor tyrosine kinase (EGFR); conditions: athymic nude mice
# [2] = test system: another carcinoma that does not express the EGF receptor
smiles,measurement,setting,value
O=CN/C=C/c1cc(O)ccc1O [erbstatin],growth of transplanted human mammary carcinoma,[1],selectively attenuates the growth
same,growth of another carcinoma,[2],without effect on the growth
